Results taken from the supplement of paper PMC4862054.
Several values for one entry are separate records, joined by “and”; a condition that tells them apart may be missing. Equal entries are not always repeated.

Columns and labels:
Details in all cases: incubation time: 72 h
MDA-MB-453 [1] = assay: normalised viability (% of control), CellTiter-Blue; higher = more viable cells (about 100 = DMSO control)
Experimental: (§1)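 DSRT, CellTiter-Blue viability, 72 h incubation. Signal is normalised to DMSO and benzethonium chloride controls. Value is the normalised response at dose 6.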

HDQ-P1 [2] = assay: as above
Experimental: as §1

CAL-148 [3] = assay: as above
Experimental: as §1

CAL-51 [4] = assay: as above
Experimental: as §1

CAL-85-1 [5] = assay: as above
Experimental: as §1

DU-4475 [6] = assay: as above
Experimental: as §1

MDA-MB-453 [7] = assay: as above; remark: listed apart in the source
Experimental: (§2)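 DSRT, CellTiter-Blue viability, 72 h incubation. Signal is normalised to DMSO and benzethonium chloride controls. Value is the normalised response at dose 8.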

HDQ-P1 [8] = assay: as above; remark: listed apart in the source
Experimental: as §2

CAL-148 [9] = assay: as above; remark: listed apart in the source
Experimental: as §2

CAL-51 [10] = assay: as above; remark: listed apart in the source
Experimental: as §2

CAL-85-1 [11] = assay: as above; remark: listed apart in the source
Experimental: as §2

BT-549 [12] = assay: normalised response (% of control), CellTiter-Glo; higher = more viable cells (100 = DMSO, 0 = benzethonium chloride kill control)
Experimental: (§3)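 DSRT, 72 h incubation, CellTox Green / CellTiter-Glo readout. Signal is normalised to DMSO and benzethonium chloride controls. Value is the normalised response at the highest dose.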

MDA-MB-453 [13] = assay: as above
Experimental: as §3

HDQ-P1 [14] = assay: as above
Experimental: as §3

MCF-10A [15] = assay: as above
Experimental: as §3

SK-BR-3 = assay: as above
Experimental: as §3

CAL-148 [16] = assay: as above
Experimental: as §3

CAL-120 [17] = assay: as above
Experimental: as §3

CAL-51 [18] = assay: as above
Experimental: as §3

Hs578T [19] = assay: as above
Experimental: as §3

MDA-MB-231 [20] = assay: as above
Experimental: as §3

CAL-85-1 [21] = assay: as above
Experimental: as §3

MDA-MB-468 [22] = assay: as above
Experimental: as §3

HCC1937 [23] = assay: as above
Experimental: as §3

DU-4475 [24] = assay: as above
Experimental: as §3

BT-474 [25] = assay: as above
Experimental: as §3

MDA-MB-436 [26] = assay: as above
Experimental: as §3

HCC1599 [27] = assay: as above
Experimental: as §3

HCC1143 [28] = assay: as above
Experimental: as §3

MFM-223 [29] = assay: as above
Experimental: as §3

BT-549 [30] = assay: normalised response (% of control), CellTox Green; higher = less cell death (100 = DMSO, 0 = benzethonium chloride kill control)
Procedure, shortened: (§4)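 Each entry is the normalised signal at a single concentration within a series. The series comprised 5 concentrations in 10-fold steps over a compound-specific 10,000-fold range, placed in 384-well plates into which breast cancer cell lines were seeded as 20 µl suspension and incubated 72 h. CellTox Green (485/520 nm) fluorescence and then CellTiter-Glo luminescence were read, with signals normalised per plate to 0.1 % DMSO (100) and a positive kill control (0).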

MDA-MB-453 [31] = assay: as above
Procedure, shortened: as §4

HDQ-P1 [32] = assay: as above
Procedure, shortened: as §4

MCF-10A [33] = assay: as above
Procedure, shortened: as §4

CAL-148 [34] = assay: as above
Procedure, shortened: as §4

CAL-120 [35] = assay: as above
Procedure, shortened: as §4

CAL-51 [36] = assay: as above
Procedure, shortened: as §4

Hs578T [37] = assay: as above
Procedure, shortened: as §4

MDA-MB-231 [38] = assay: as above
Procedure, shortened: as §4

CAL-85-1 [39] = assay: as above
Procedure, shortened: as §4

MDA-MB-468 [40] = assay: as above
Procedure, shortened: as §4

HCC1937 [41] = assay: as above
Procedure, shortened: as §4

DU-4475 [42] = assay: as above
Procedure, shortened: as §4

BT-474 [43] = assay: as above
Procedure, shortened: as §4

MDA-MB-436 [44] = assay: as above
Procedure, shortened: as §4

HCC1599 [45] = assay: as above
Procedure, shortened: as §4

HCC1143 [46] = assay: as above
Procedure, shortened: as §4

MFM-223 [47] = assay: as above
Procedure, shortened: as §4

Cc1c(N)nc([C@H](CC(N)=O)NC[C@H](N)C(N)=O)nc1C(=O)N[C@H](C(=O)N[C@H](C)[C@@H](O)[C@H](C)C(=O)N[C@H](C(=O)NCCc1nc(-c2nc(C(=O)NCCC[S+](C)C)cs2)cs1)[C@@H](C)O)[C@@H](OC1OC(CO)C(O)C(O)C1OC1OC(CO)C(O)C(OC(N)=O)C1O)c1cnc[nH]1 (stereo not given in full) [Bleomycin] (300 nM)
normalised viability (MDA-MB-453 [1]): 102% | normalised viability (HDQ-P1 [2]): 72.9% | normalised viability (CAL-148 [3]): 81.5% | normalised viability (CAL-51 [4]): 90.9% | normalised viability (CAL-85-1 [5]): 92.5% | normalised viability (DU-4475 [6]): 107%

CCCCCOC(=O)Nc1nc(=O)n([C@@H]2O[C@H](C)[C@@H](O)[C@H]2O)cc1F [Capecitabine] (300 nM)
normalised viability (MDA-MB-453 [1]): 108% and 94.3% | normalised viability (HDQ-P1 [2]): 62.7% and 83.6% | normalised viability (CAL-148 [3]): 98% and 94.3% | normalised viability (CAL-51 [4]): 103% and 96.5% | normalised viability (CAL-85-1 [5]): 92.1% and 98.6%

CCCCCOC(=O)Nc1nc(=O)n([C@@H]2O[C@H](C)[C@@H](O)[C@H]2O)cc1F [Capecitabine] (3000 nM)
normalised viability (MDA-MB-453 [7]): 95.7% and 93.7% | normalised viability (HDQ-P1 [8]): 89.4% and 86.4% | normalised viability (CAL-148 [9]): 98.8% and 92.8% | normalised viability (CAL-51 [10]): 109% and 96% | normalised viability (CAL-85-1 [11]): 82.3% and 95.4%

COc1cc2c(cc1-c1c(C)noc1C)ncc1[nH]c(=O)n([C@H](C)c3ccccn3)c12 [I-BET151] (10000 nM)
normalised response (BT-549 [12]): 38.5% | normalised response (MDA-MB-453 [13]): 21.8% | normalised response (HDQ-P1 [14]): 67% | normalised response (MCF-10A [15]): 54.5% | normalised response (SK-BR-3): 53% | normalised response (CAL-148 [16]): 71.7% | normalised response (CAL-120 [17]): 64% | normalised response (CAL-51 [18]): 59.5% | normalised response (Hs578T [19]): 35% | normalised response (MDA-MB-231 [20]): 62.5% | normalised response (CAL-85-1 [21]): 30.7% | normalised response (MDA-MB-468 [22]): 50.6% | normalised response (HCC1937 [23]): 72.2% | normalised response (DU-4475 [24]): 53.3% | normalised response (BT-474 [25]): 59.3% | normalised response (MDA-MB-436 [26]): 75.6% | normalised response (HCC1599 [27]): 67.6% | normalised response (HCC1143 [28]): 59.3% | normalised response (MFM-223 [29]): 49.9% | normalised response (BT-549 [30]): 81.8% | normalised response (MDA-MB-453 [31]): 98.5% | normalised response (HDQ-P1 [32]): 72.8% | normalised response (MCF-10A [33]): 28.1% | normalised response (CAL-148 [34]): 72.4% | normalised response (CAL-120 [35]): 76.1% | normalised response (CAL-51 [36]): 47.1% | normalised response (Hs578T [37]): 112% | normalised response (MDA-MB-231 [38]): 45.2% | normalised response (CAL-85-1 [39]): 48.9% | normalised response (MDA-MB-468 [40]): -18.1% | normalised response (HCC1937 [41]): 66.3% | normalised response (DU-4475 [42]): 81.2% | normalised response (BT-474 [43]): 95.2% | normalised response (MDA-MB-436 [44]): 35.5% | normalised response (HCC1599 [45]): 93.5% | normalised response (HCC1143 [46]): 104% | normalised response (MFM-223 [47]): 104%

CC(C)n1nc(-c2ccc3oc(N)nc3c2)c2c(N)ncnc21 [INK128] (1000 nM)
normalised response (BT-549 [12]): 19.5% | normalised response (MDA-MB-453 [13]): 30% | normalised response (HDQ-P1 [14]): 29.6% | normalised response (MCF-10A [15]): 25.1% | normalised response (SK-BR-3): 17.4% | normalised response (CAL-148 [16]): 16.1% | normalised response (CAL-120 [17]): 18.5% | normalised response (CAL-51 [18]): 20.9% | normalised response (Hs578T [19]): 24.5% | normalised response (MDA-MB-231 [20]): 33.9% | normalised response (CAL-85-1 [21]): 24.2% | normalised response (MDA-MB-468 [22]): 18.7% | normalised response (HCC1937 [23]): 37% | normalised response (DU-4475 [24]): 18.4% | normalised response (BT-474 [25]): 41.1% | normalised response (MDA-MB-436 [26]): 45.8% | normalised response (HCC1599 [27]): 79.2% | normalised response (HCC1143 [28]): 22.1% | normalised response (MFM-223 [29]): 26.5% | normalised response (BT-549 [30]): 93.2% | normalised response (MDA-MB-453 [31]): 97.1% | normalised response (HDQ-P1 [32]): 98.4% | normalised response (MCF-10A [33]): 92% | normalised response (CAL-148 [34]): 42% | normalised response (CAL-120 [35]): 97.3% | normalised response (CAL-51 [36]): 85.2% | normalised response (Hs578T [37]): -29.1% | normalised response (MDA-MB-231 [38]): 87.6% | normalised response (CAL-85-1 [39]): 115% | normalised response (MDA-MB-468 [40]): 153% | normalised response (HCC1937 [41]): 103% | normalised response (DU-4475 [42]): 86.9% | normalised response (BT-474 [43]): 93.8% | normalised response (MDA-MB-436 [44]): 91.4% | normalised response (HCC1599 [45]): 99.4% | normalised response (HCC1143 [46]): 113% | normalised response (MFM-223 [47]): 28.3%
